Source: PMC4982440, “PDK1-SGK1 Signaling Sustains AKT-Independent mTORC1 Activation and Confers Resistance to PI3Kα Inhibition” (Cancer Cell, 2016)

Key:
Format in all cases: biochemical
S6K = biological target: T1, S6K (Homo sapiens, UniProt P23443); assay: recombinant in vitro kinase assay
T1 construct: gene RPS6KB1; recombinant S6K

SGK3 = biological target: T2, SGK3 (Homo sapiens, UniProt Q96BR1); assay: in vitro kinase assay
T2 sequence (Q96BR1 1-496): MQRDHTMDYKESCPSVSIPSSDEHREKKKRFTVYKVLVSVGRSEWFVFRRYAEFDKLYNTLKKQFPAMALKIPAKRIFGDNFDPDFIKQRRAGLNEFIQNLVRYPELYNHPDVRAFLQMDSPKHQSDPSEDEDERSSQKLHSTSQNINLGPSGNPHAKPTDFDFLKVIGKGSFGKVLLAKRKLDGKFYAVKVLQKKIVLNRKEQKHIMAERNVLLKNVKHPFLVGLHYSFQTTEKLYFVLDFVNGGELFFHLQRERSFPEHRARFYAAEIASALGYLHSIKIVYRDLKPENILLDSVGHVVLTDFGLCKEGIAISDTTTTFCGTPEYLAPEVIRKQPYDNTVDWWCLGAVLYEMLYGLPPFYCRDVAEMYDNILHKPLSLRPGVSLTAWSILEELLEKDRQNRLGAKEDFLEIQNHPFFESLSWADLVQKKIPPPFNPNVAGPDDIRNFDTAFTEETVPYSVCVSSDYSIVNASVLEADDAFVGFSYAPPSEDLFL

SGK2 = biological target: T3, SGK2 (Homo sapiens, UniProt Q9HBY8); assay: in vitro kinase assay
T3 sequence (Q9HBY8 1-367): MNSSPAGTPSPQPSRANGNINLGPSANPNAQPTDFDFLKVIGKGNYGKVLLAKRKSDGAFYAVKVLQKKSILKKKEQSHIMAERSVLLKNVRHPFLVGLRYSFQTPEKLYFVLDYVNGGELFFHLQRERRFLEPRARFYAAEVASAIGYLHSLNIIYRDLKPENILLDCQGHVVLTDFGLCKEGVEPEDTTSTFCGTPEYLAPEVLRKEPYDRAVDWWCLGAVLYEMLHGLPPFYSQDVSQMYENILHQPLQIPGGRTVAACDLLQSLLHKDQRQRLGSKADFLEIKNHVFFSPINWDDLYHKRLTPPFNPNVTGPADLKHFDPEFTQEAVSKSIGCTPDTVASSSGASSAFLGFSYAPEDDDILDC

T1 sequence (P23443 whole entry): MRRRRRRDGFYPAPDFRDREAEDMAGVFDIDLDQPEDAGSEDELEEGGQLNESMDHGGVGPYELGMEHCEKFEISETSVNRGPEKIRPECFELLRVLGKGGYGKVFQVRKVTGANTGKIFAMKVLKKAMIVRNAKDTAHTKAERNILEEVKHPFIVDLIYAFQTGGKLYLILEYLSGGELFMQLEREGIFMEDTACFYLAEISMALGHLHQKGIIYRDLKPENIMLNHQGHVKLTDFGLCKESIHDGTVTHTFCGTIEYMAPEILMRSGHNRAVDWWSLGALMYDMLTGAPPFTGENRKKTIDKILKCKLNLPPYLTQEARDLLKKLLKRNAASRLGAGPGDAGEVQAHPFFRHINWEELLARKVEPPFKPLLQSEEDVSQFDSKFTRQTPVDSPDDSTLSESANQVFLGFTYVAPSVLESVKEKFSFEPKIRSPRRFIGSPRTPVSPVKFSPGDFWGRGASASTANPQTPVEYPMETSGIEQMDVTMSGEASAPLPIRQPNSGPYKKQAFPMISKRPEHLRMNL

## Nc1n[nH]c2nc(-c3ccc(NS(=O)(=O)c4cccc(Cl)c4Cl)cc3)cnc12 [SGK1-inh]
S6K
  IC50: 33 nM
SGK3
  IC50: 590 nM
SGK2
  IC50: 2.8 nM
